Among the data in patent US9567318B2, “Substituted pyrimidine compounds and uses thereof” (Memorial Sloan-Kettering Cancer Center, priority 2009, dated 2017) are IC50 values, retold here.

In one experiment the test system is Kasumi-1 acute myeloid leukemia cells. Briefly: Growth Inhibition Assay (Alamar blue), Kasumi-1. Format: cell-based, human. As to conditions: Homo sapiens, Kasumi 1, 72 h, Kasumi-1 cells. The method, then:
The IC50 values listed for some of these compounds illustrate the antiproliferative effects of the subject compounds and were obtained using the Growth Inhibition assays described herein.
Growth Inhibition Assay. Antiproliferative effects of inhibitors were evaluated using the dye Alamar blue. This reagent offers a rapid objective measure of cell viability in cell culture, and it uses the indicator dye resazurin to measure the metabolic capacity of cells, an indicator of cell viability. Briefly, cells were plated on Costar 96-well plates. For attached cells (such as SKBr3, MDA-MB-468, LNCaP, MRCS), 8,000 cells/well were used. For suspension cells (such as MOLM-13, Kasumi-1, OCI-Ly7, PBL), 20,000 cells/well were plated. Cells were allowed to incubate for 24 h at 37° C. before drug treatment. Drugs were added in triplicates at the indicated concentrations, and the plate was incubated for 72 h. Alamar Blue (440 μM) was added, and the plate read 6 h later using the Analyst GT (Fluorescence intensity mode, excitation 530 nm, emission 580 nm, with 560=dichroic mirror). Results were analyzed using the Softmax Pro software. The percentage cell growth inhibition was calculated by comparing fluorescence readings obtained from treated versus control cells, accounting for initial cell population (time zero).
For the compound `CCCCN1CCN(c2nc(OC)c(Sc3nc(N)cc(N)n3)c(OC)n2)CC1` [YK25, 2-(2-(4-butylpiperazin-1-yl)-4,6-dimethoxypyrimidin-5-ylthio)pyrimidine-4,6-diamine], the half-maximal inhibitory concentration (IC50) was greater than 100 µM.
Still for that read-out and setting: as for `COc1nc(N2CCCC2)nc(OC)c1Sc1nccc(NC(C)=O)n1` [YK66, N-(2-(4,6-dimethoxy-2-(pyrrolidin-1-yl)pyrimidin-5-ylthio)pyrimidin-4-yl)acetamide], the figure is 48.3 µM; as for `C=CC(=O)Nc1cc(N)nc(Sc2c(OCC)nc(N3CCN(C)CC3)nc2OCC)n1` [YK30, N-(6-amino-2-(4,6-diethoxy-2-(4-methylpiperazin-1-yl)pyrimidin-5-ylthio)pyrimidin-4-yl)acrylamide], 0.48 µM.
Same read-out and setting: as for `CCCCCCCC(=O)Nc1cc(N)nc(Sc2c(OC)nc(N3CCN(CCO)CC3)nc2OC)n1` [YK21, N-(6-amino-2-(2-(4-(2-hydroxyethyl)piperazin-1-yl)-4,6-dimethoxypyrimidin-5-ylthio)pyrimidin-4-yl)octanamide], the figure is 7.2 µM; as for `CCOc1nc(N2CCOCC2)nc(OCC)c1Sc1nc(N)cc(NC(=O)c2ccco2)n1` [YK49, N-(6-amino-2-(4,6-diethoxy-2-morpholinopyrimidin-5-ylthio)pyrimidin-4-yl)furan-2-carboxamide], greater than 100 µM.
On the same count and under the same terms, the figure for `C=C(C)C(=O)Nc1ccnc(Sc2c(OC)nc(N3CCCC3)nc2OC)n1` [YK108, N-(2-(4,6-dimethoxy-2-(pyrrolidin-1-yl)pyrimidin-5-ylthio)pyrimidin-4-yl)methacrylamide] is 9.5 µM; for `COc1nc(N2CCCC2)nc(OC)c1Sc1nccc(N)n1` [YK70, 2-(4,6-dimethoxy-2-(pyrrolidin-1-yl)pyrimidin-5-ylthio)pyrimidin-4-amine] it is 25.2 µM; for `COc1nc(F)nc(OC)c1Sc1nccc(NC(C)=O)n1` [YK62, N-(2-(2-fluoro-4,6-dimethoxypyrimidin-5-ylthio)pyrimidin-4-yl)acetamide] it is greater than 100 µM.
Regarding `COc1nc(N2CCOCC2)nc(OC)c1Sc1nccc(N)n1` [YK69, 2-(4,6-dimethoxy-2-morpholinopyrimidin-5-ylthio)pyrimidin-4-amine], the IC50 was found to be 54.2 µM. In other words, the double-digit micromolar range.
Still for that read-out and setting: the figure for `C=CC(=O)Nc1cc(N)nc(Sc2c(OC)nc(N3CCCCC3)nc2OC)n1` [YK19, N-(6-amino-2-(4,6-dimethoxy-2-(piperidin-1-yl)pyrimidin-5-ylthio)pyrimidin-4-yl)acrylamide] is 2.5 µM; for `CCC(=O)Nc1cccc(Sc2c(C)nc(N3CCNCC3)nc2C)c1` [YK146, N-(3-(4,6-dimethyl-2-(piperazin-1-yl)pyrimidin-5-ylthio)phenyl)propionamide] it is 8.8 µM.
On to `COc1nc(N2CCOCC2)nc(OC)c1Sc1nc(NC(C)=O)cc(NC(C)=O)n1` [YK8, N,N′-(2-(4,6-dimethoxy-2-morpholinopyrimidin-5-ylthio)pyrimidine-4,6-diyl)diacetamide], for which the 50% inhibitory concentration (IC50) is greater than 100 µM.
Same read-out and setting: as for `CCCCCCCC(=O)Nc1cc(N)nc(Sc2c(OC)nc(N3CCCCC3)nc2OC)n1` [YK23, N-(6-amino-2-(4,6-dimethoxy-2-(piperidin-1-yl)pyrimidin-5-ylthio)pyrimidin-4-yl)octanamide], the figure is 13.2 µM; as for `COc1nc(N2CCN(C)CC2)nc(OC)c1Sc1nccc(N)n1` [YK67, 2-(4,6-dimethoxy-2-(4-methylpiperazin-1-yl)pyrimidin-5-ylthio)pyrimidin-4-amine], 93.5 µM; as for `CCC(=O)Nc1cc(N)nc(Sc2c(OC)nc(N3CCN(C)CC3)nc2OC)n1` [YK13, N-(6-amino-2-(4,6-dimethoxy-2-(4-methylpiperazin-1-yl)pyrimidin-5-ylthio)pyrimidin-4-yl)propionamide], greater than 100 µM.
Same read-out and setting: as for `C=CC(=O)Nc1cc(N)nc(Sc2c(OCC)nc(N3CCOCC3)nc2OCC)n1` [YK44, N-(6-amino-2-(4,6-diethoxy-2-morpholinopyrimidin-5-ylthio)pyrimidin-4-yl)acrylamide], the figure is 1.2 µM.
On the same count and under the same terms, the figure for `CCOc1nc(N2CCCCC2)nc(OCC)c1Sc1nc(NC(=O)C2CC2)cc(NC(=O)C2CC2)n1` [YK41, N,N′-(2-(4,6-diethoxy-2-(piperidin-1-yl)pyrimidin-5-ylthio)pyrimidine-4,6-diyl)dicyclopropanecarboxamide] is greater than 100 µM; for `CCOc1nc(N2CCCCC2)nc(OCC)c1Sc1nc(N)cc(NC(=O)C2CC2)n1` [YK40, N-(6-amino-2-(4,6-diethoxy-2-(piperidin-1-yl)pyrimidin-5-ylthio)pyrimidin-4-yl)cyclopropanecarboxamide] it is 38.3 µM.
In turn, `COc1nc(N2CCN(C)CC2)nc(OC)c1Sc1nccc(NC(C)=O)n1` [YK63, N-(2-(4,6-dimethoxy-2-(4-methylpiperazin-1-yl)pyrimidin-5-ylthio)pyrimidin-4-yl)acetamide] had an IC50 of 11.2 µM.
The same measure, in the same setting: as for `C=CC(=O)Nc1cc(N)nc(Sc2c(OCC)nc(N3CCCCC3)nc2OCC)n1` [YK37, N-(6-amino-2-(4,6-diethoxy-2-(piperidin-1-yl)pyrimidin-5-ylthio)pyrimidin-4-yl)acrylamide], the figure is 2.5 µM; as for `C=CC(=O)Nc1ccnc(Sc2c(OC)nc(N3CCCCC3)nc2OC)n1` [YK72, N-(2-(4,6-dimethoxy-2-(piperidin-1-yl)pyrimidin-5-ylthio)pyrimidin-4-yl)acrylamide], 2 µM.
The same measure, in the same setting: as for `C=CC(=O)Nc1cc(N)nc(Sc2c(OC)nc(N3CCN(CCOCCOCCOCCO)CC3)nc2OC)n1` [YK54, N-(6-amino-2-(2-(4-(2-(2-(2-(2-hydroxyethoxy)ethoxy)ethoxy)ethyl)piperazin-1-yl)-4,6-dimethoxypyrimidin-5-ylthio)pyrimidin-4-yl)acrylamide], the figure is 4.8 µM; as for `COc1nc(N)nc(OC)c1Sc1nccc(NC(C)=O)n1` [YK61, N-(2-(2-amino-4,6-dimethoxypyrimidin-5-ylthio)pyrimidin-4-yl)acetamide], 94.4 µM.
Still for that read-out and setting: the figure for `C=CC(=O)Nc1cc(N)nc(Sc2c(OC)nc(N3CCN(CCOCCOCCOCCOC(=O)CCCCC4SCC5NC(=O)NC54)CC3)nc2OC)n1` (stereo not shown) [YK55, 2-(2-(2-(2-(4-(5-(4-acrylamido-6-aminopyrimidin-2-ylthio)-4,6-dimethoxypyrimidin-2-yl)piperazin-1-yl)ethoxy)ethoxy)ethoxy)ethyl 5-(2-oxohexahydro-1H-thieno[3,4-d]imidazol-4-yl)pentanoate] is 13.1 µM; for `CCC(=O)Nc1cc(N)nc(Sc2c(OC)nc(N3CCOCC3)nc2OC)n1` [YK15, N-(6-amino-2-(4,6-dimethoxy-2-morpholinopyrimidin-5-ylthio)pyrimidin-4-yl)propionamide] it is greater than 100 µM; for `COc1nc(N2CCCCC2)nc(OC)c1Sc1nccc(N)n1` [YK68, 2-(4,6-dimethoxy-2-(piperidin-1-yl)pyrimidin-5-ylthio)pyrimidin-4-amine] it is 14.7 µM.
As to `COc1nc(N)nc(OC)c1Sc1nc(N)cc(NC(=O)CCN2CCN(C)CC2)n1` [YK6, N-(6-amino-2-(2-amino-4,6-dimethoxypyrimidin-5-ylthio)pyrimidin-4-yl)-3-(4-methylpiperazin-1-yl)propanamide], the IC50 worked out at 23 µM.
Regarding `COc1nc(N2CCOCC2)nc(OC)c1Sc1nccc(NC(C)=O)n1` [YK65, N-(2-(4,6-dimethoxy-2-morpholinopyrimidin-5-ylthio)pyrimidin-4-yl)acetamide], the IC50 amounted to 15.7 µM.
Still for that read-out and setting: as for `C/C=C/C(=O)Nc1ccnc(Sc2c(C)nc(N3CCN(C)CC3)nc2C)n1` [YK87, (E)-N-(2-(4,6-dimethyl-2-(4-methylpiperazin-1-yl)pyrimidin-5-ylthio)pyrimidin-4-yl)but-2-enamide], the figure is 16 µM.
Turning to `CCCCCCCC(=O)Nc1cc(N)nc(Sc2c(OC)nc(N3CCOCC3)nc2OC)n1` [YK22, N-(6-amino-2-(4,6-dimethoxy-2-morpholinopyrimidin-5-ylthio)pyrimidin-4-yl)octanamide], the IC50 amounted to 12.3 µM.
The compound `COc1nc(N2CCOCC2)nc(OC)c1Sc1nc(N)cc(N)n1` [YK11, 2-(4,6-dimethoxy-2-morpholinopyrimidin-5-ylthio)pyrimidine-4,6-diamine] returned a concentration for half-maximal inhibition (IC50) greater than 100 µM.
The same measure, in the same setting: the figure for `COc1nc(N2CCCCC2)nc(OC)c1Sc1nc(NC(C)=O)cc(NC(C)=O)n1` [YK9, N,N′-(2-(4,6-dimethoxy-2-(piperidin-1-yl)pyrimidin-5-ylthio)pyrimidine-4,6-diyl)diacetamide] is greater than 100 µM; for `CCC(=O)Nc1cc(N)nc(Sc2c(OC)nc(N3CCN(CCO)CC3)nc2OC)n1` [YK14, N-(6-amino-2-(2-(4-(2-hydroxyethyl)piperazin-1-yl)-4,6-dimethoxypyrimidin-5-ylthio)pyrimidin-4-yl)propionamide] it is greater than 100 µM.
On the same count and under the same terms, as for `CCC(=O)Nc1cc(N)nc(Sc2c(OC)nc(N3CCCCC3)nc2OC)n1` [YK16, N-(6-amino-2-(4,6-dimethoxy-2-(piperidin-1-yl)pyrimidin-5-ylthio)pyrimidin-4-yl)propionamide], the figure is greater than 100 µM.
Still for that read-out and setting: the figure for `COc1nc(N2CCN(C)CC2)nc(OC)c1Sc1nc(N)cc(N)n1` [YK2, 2-(4,6-dimethoxy-2-(4-methylpiperazin-1-yl)pyrimidin-5-ylthio)pyrimidine-4,6-diamine] is 57.2 µM.
`C/C=C/C(=O)Nc1cc(N)nc(Sc2c(OCC)nc(N3CCN(C)CC3)nc2OCC)n1` [YK34, (E)-N-(6-amino-2-(4,6-diethoxy-2-(4-methylpiperazin-1-yl)pyrimidin-5-ylthio)pyrimidin-4-yl)but-2-enamide] showed a half-maximal inhibitory concentration (IC50) of 55 µM.

The same experiment, now with this note: Kasumi-1 cells, 72 h.
For `CCC(=O)Nc1cccc(Sc2c(C)nc(N3CCNCC3)nc2C)c1` [YK146, N-(3-(4,6-dimethyl-2-(piperazin-1-yl)pyrimidin-5-ylthio)phenyl)propionamide], the IC50 came out at 9 µM.
